Several values for one entry are separate records, joined by “and”; a condition that tells them apart may be missing. Equal entries are not always repeated. Where two headings read alike, the source gives them in different places. Ends that are not written are not given here.
Columns and labels:
[1] = tested on: P. aeruginosa strain 27853
Procedure: Approximately 1-5×10^5 colony forming units (CFUs) of P. aeruginosa strain 27853, dispersed in 100 μl of Trypticase soy broth (TSB), were added to each test well. […] B13-33 peptide is of the following structure:
The following peptide combinations were tested for Minimal Inhibitory Concentration (MIC) of the B13-33 peptide:
The following combinations were tested for the MIC of silver nitrate:
Approximately 1-5×10^5 CFUs of P. aeruginosa strain 27853 dispersed in 100 μl of TSB were added to each test well. […]

[2] = tested on: P. aeruginosa strain 107 which was gentamicin resistant; test: Minimum Inhibitory Concentration (MIC) in TSB, test wells; assay type: cell-based; details: for MIC: agent alone, gentamicin resistant P. aeruginosa strain 107; for MIC of the peptide: P. aeruginosa strain 107
Procedure: Approximately 1-5×10^5 CFUs of P. aeruginosa strain 107 which was gentamicin resistant, dispersed in 100 μl of TSB were added to each test well. […] The following combinations of Magainin II, with or without silver nitrate, were tested for Minimum Inhibitory Concentration (MIC) of Magainin II: […]

[3] = tested on: clinical isolate of a methicillin resistant S. aureus (MSRA); assay type: cell-based; details: agent alone
Procedure: Approximately 1-5×10^5 CFUs of a clinical isolate of a methicillin resistant S. aureus (MSRA), dispersed in 100 μl of TSB were added to each test well. […] The MIC of each peptide alone, and of silver nitrate alone was determined. The MIC of each peptide when 5 μg/ml and/or 10 μg/ml of silver nitrate was added was determined as well.

[4] = agent alone, P. aeruginosa strain 27853
[5] = plus 3 μg/ml silver nitrate, P. aeruginosa strain 27853

Compound: KWKLFKKIEKVGQRVRDAVISAGPAVATVAQATALAK [Cecropin A-D]
- MIC [1, 4]: 16 µg/mL
- MIC of the peptide [1, 5]: < 0.25 µg/mL

Compound: GIGKFLHSAKKFGKAFVGEIMNS-NH2 [Magainin II]
- MIC [2]: 256 µg/mL
- MIC of the peptide ([2]; plus 1 μg/ml silver nitrate): 32 µg/mL
- MIC of the peptide ([2]; plus 2 μg/ml silver nitrate): 16 µg/mL
- MIC of the peptide ([2]; plus 3 μg/ml silver nitrate): 16 µg/mL
- MIC of the peptide ([2]; plus 4 μg/ml silver nitrate): 4 µg/mL
- MIC of the peptide ([2]; plus 5 μg/ml silver nitrate): < 0.03 µg/mL
- MIC of the peptide ([1]; plus 1 μg/ml silver nitrate, P. aeruginosa strain 27853): 32 µg/mL
- MIC of the peptide ([1]; plus 2 μg/ml silver nitrate, P. aeruginosa strain 27853): 16 µg/mL
- MIC of the peptide [1, 5]: 8 µg/mL
- MIC of the peptide ([1]; plus 4 μg/ml silver nitrate, P. aeruginosa strain 27853): < 0.03 µg/mL

Compound: GIGKFLKKAKKFGKAFVKIMKK [B13-33 peptide]
- MIC ([1]; strain 27853): 4 to 16 µg/mL

Compound: O=[N+]([O-])[O-].[Ag+] [Silver nitrate, silver nitrate, reference compound]
- MIC [3]: 16 µg/mL
- MIC [2]: 8 µg/mL
- MIC [1, 4]: 4 to 8 µg/mL and 8 µg/mL
- MIC ([1]; agent alone, P. aeruginosa strain 27853, listed as silver nitrate): 2 to 8 µg/mL
- MIC of silver nitrate ([1]; plus 1.6 μg/ml B13-33 peptide, P. aeruginosa strain 27853): 2 to 8 µg/mL
- MIC of silver nitrate ([1]; plus 5 μg/ml B13-33 peptide, P. aeruginosa strain 27853): < 0.25 µg/mL
- MIC of silver nitrate ([1]; plus 5 μg/ml B13-33 peptide, P. aeruginosa strain 27853, listed as silver nitrate): less than 0.25 μg/ml
